Measured values as given in ChEMBL document CHEMBL4229365, “Synthesis of novel ring-contracted artemisinin dimers with potent anticancer activities” (Eur J Med Chem, 2018).

Legend:
SH-SY5Y = assay: Antiproliferative activity against human SH-SY5Y cells after 72 hrs by CCK-8 assay; type: functional, cell-based
HCT-116 = assay: Antiproliferative activity against human HCT116 cells after 72 hrs by CCK-8 assay; type: functional, cell-based; details: HCT-116, 72 h
A549 = assay: Antiproliferative activity against human A549 cells after 72 hrs by CCK-8 assay; type: functional, cell-based; details: A549, 72 h
A-375 = assay: Antiproliferative activity against human A375 cells after 72 hrs by CCK-8 assay; type: functional, cell-based; details: A-375, 72 h
PC-12 = assay: Antiproliferative activity against rat PC12 cells after 72 hrs by CCK-8 assay; type: functional, cell-based; details: PC-12, 72 h
L02 = assay: Antiproliferative activity against human L02 cells after 72 hrs by CCK-8 assay; type: cell-based; details: L02, 72 h
[1] = Half life in human liver microsomes at 1.11 uM preincubated for 10 mins followed by NADPH addition by LC-MS/MS analysis; type: ADME, microsome

| SMILES | IC50 (SH-SY5Y) | IC50 (HCT-116) | IC50 (A549) | IC50 (A-375) | IC50 (PC-12) | IC50 (L02) | half-life at 1.11 µM [1] |
| --- | --- | --- | --- | --- | --- | --- | --- |
| CCOP(=O)(OC/C=C\[C@@]1(C)O[C@@H]2O[C@@]3(C)CC[C@H]4[C@H](C)CC[C@@H]1[C@@]24OO3)OC/C=C/[C@@]1(C)O[C@@H]2O[C@@]3(C)CC[C@H]4[C@H](C)CC[C@@H]1[C@@]24OO3 | 6.38 µM | 10.7 µM | 11.4 µM | 12.4 µM | 5.26 µM | 18.7 µM |  |
| C[C@@H]1CC[C@@H]2[C@]34OO[C@](C)(CC[C@@H]13)O[C@H]4O[C@]2(C)CO | > 50 µM | > 50 µM | > 50 µM | > 50 µM | > 50 µM | > 50 µM |  |
| C[C@@H]1CC[C@@H]2[C@]34OO[C@](C)(CC[C@@H]13)O[C@H]4O[C@]2(C)C(=O)OCCCCCCCCOC(=O)[C@@]1(C)O[C@@H]2O[C@@]3(C)CC[C@H]4[C@H](C)CC[C@@H]1[C@@]24OO3 | 4.87 µM | 31.6 µM | 4.69 µM | 5.73 µM | 5.67 µM | 4.84 µM |  |
| C[C@@H]1CC[C@@H]2[C@]34OO[C@](C)(CC[C@@H]13)O[C@H]4O[C@]2(C)C(=O)OCC(C)(C)COC(=O)[C@@]1(C)O[C@@H]2O[C@@]3(C)CC[C@H]4[C@H](C)CC[C@@H]1[C@@]24OO3 | > 50 µM | > 50 µM | > 50 µM | > 50 µM | > 50 µM |  |  |
| C[C@@H]1CC[C@@H]2[C@]34OO[C@](C)(CC[C@@H]13)O[C@H]4O[C@]2(C)C(=O)OCCCCOC(=O)[C@@]1(C)O[C@@H]2O[C@@]3(C)CC[C@H]4[C@H](C)CC[C@@H]1[C@@]24OO3 | 6.26 µM | 7.65 µM | 6.56 µM | 13.2 µM | 8.52 µM | 16.2 µM |  |
| C[C@@H]1CC[C@@H]2[C@]34OO[C@](C)(CC[C@@H]13)O[C@H]4O[C@]2(C)C(=O)OCCCCCCCCCCCCOC(=O)[C@@]1(C)O[C@@H]2O[C@@]3(C)CC[C@H]4[C@H](C)CC[C@@H]1[C@@]24OO3 | > 50 µM | > 50 µM | > 50 µM | > 50 µM | > 50 µM |  |  |
| C[C@@H]1CC[C@@H]2[C@]34OO[C@](C)(CC[C@@H]13)O[C@H]4O[C@]2(C)C(=O)NCCCCCCNC(=O)[C@@]1(C)O[C@@H]2O[C@@]3(C)CC[C@H]4[C@H](C)CC[C@@H]1[C@@]24OO3 | > 50 µM | > 50 µM | > 50 µM | 35.3 µM | > 50 µM |  |  |
| C[C@@H]1CC[C@@H]2[C@]34OO[C@](C)(CC[C@@H]13)O[C@H]4O[C@]2(C)C(=O)Nc1cccc(NC(=O)[C@@]2(C)O[C@@H]3O[C@@]4(C)CC[C@H]5[C@H](C)CC[C@@H]2[C@@]35OO4)c1 | > 50 µM | > 50 µM | > 50 µM | > 50 µM | > 50 µM |  |  |
| C[C@@H]1CC[C@@H]2[C@]34OO[C@](C)(CC[C@@H]13)O[C@H]4O[C@]2(C)C(=O)Nc1ccccc1NC(=O)[C@@]1(C)O[C@@H]2O[C@@]3(C)CC[C@H]4[C@H](C)CC[C@@H]1[C@@]24OO3 | 5.75 µM | 20 µM | 31.6 µM | 11.3 µM | 18.2 µM | > 50 µM |  |
| C[C@@H]1CC[C@@H]2[C@]34OO[C@](C)(CC[C@@H]13)O[C@H]4O[C@]2(C)C(=O)NCCCCCCCCNC(=O)[C@@]1(C)O[C@@H]2O[C@@]3(C)CC[C@H]4[C@H](C)CC[C@@H]1[C@@]24OO3 | > 50 µM | > 50 µM | 18.9 µM | 19.4 µM | 11.2 µM | > 50 µM |  |
| C[C@@H]1CC[C@@H]2[C@]34OO[C@](C)(CC[C@@H]13)O[C@H]4O[C@]2(C)C(=O)OCCCCCCOC(=O)[C@@]1(C)O[C@@H]2O[C@@]3(C)CC[C@H]4[C@H](C)CC[C@@H]1[C@@]24OO3 | 15.3 µM | > 50 µM | > 50 µM | 22.6 µM | 33.2 µM | > 50 µM |  |
| C[C@@H]1CC[C@@H]2[C@]34OO[C@](C)(CC[C@@H]13)O[C@H]4O[C@]2(C)C(=O)OCCCCCCCCCCOC(=O)[C@@]1(C)O[C@@H]2O[C@@]3(C)CC[C@H]4[C@H](C)CC[C@@H]1[C@@]24OO3 | > 50 µM | > 50 µM | 29 µM | 20.8 µM | > 50 µM | > 50 µM |  |
| C[C@@H]1CC[C@@H]2[C@]34OO[C@](C)(CC[C@@H]13)O[C@H]4O[C@]2(C)C(=O)OCCCCCOC(=O)[C@@]1(C)O[C@@H]2O[C@@]3(C)CC[C@H]4[C@H](C)CC[C@@H]1[C@@]24OO3 | 9.26 µM | > 50 µM | 12 µM | > 50 µM | > 50 µM |  |  |
| C[C@]12CC[C@H]3[C@@H](CCC4=CC(=O)CC[C@@]43C)[C@@H]1CC[C@@H]2O [TESTOSTERONE] |  |  |  |  |  |  | 10.3 min |
| C[C@@H]1CC[C@@H]2[C@]34OO[C@](C)(CC[C@@H]13)O[C@H]4O[C@]2(C)C(=O)O | > 50 µM | > 50 µM | > 50 µM | > 50 µM | 37.3 µM | > 50 µM |  |
| COc1cccc2c1C(=O)c1c(O)c3c(c(O)c1C2=O)C[C@@](O)(C(=O)CO)C[C@@H]3O[C@H]1C[C@H](N)[C@H](O)[C@H](C)O1 [DOXORUBICIN] | 0.35 µM | 0.79 µM | 0.43 µM | 0.37 µM | 0.52 µM | 0.85 µM |  |
| C[C@@H]1CC[C@@H]2[C@]34OO[C@](C)(CC[C@@H]13)O[C@H]4O[C@]2(C)C(=O)OCc1ccccc1COC(=O)[C@@]1(C)O[C@@H]2O[C@@]3(C)CC[C@H]4[C@H](C)CC[C@@H]1[C@@]24OO3 | 47.5 µM | 15.1 µM | 21.7 µM | > 50 µM | 8.73 µM | 5 µM |  |
| C[C@@H]1CC[C@@H]2[C@]34OO[C@](C)(CC[C@@H]13)O[C@H]4O[C@]2(C)C(=O)OCCOC(=O)[C@@]1(C)O[C@@H]2O[C@@]3(C)CC[C@H]4[C@H](C)CC[C@@H]1[C@@]24OO3 | > 50 µM | > 50 µM | > 50 µM | > 50 µM | > 50 µM |  |  |
| C[C@@H]1CC[C@@H]2[C@]34OO[C@](C)(CC[C@@H]13)O[C@H]4O[C@]2(C)C(=O)OCCCCCCCOC(=O)[C@@]1(C)O[C@@H]2O[C@@]3(C)CC[C@H]4[C@H](C)CC[C@@H]1[C@@]24OO3 | 7.29 µM | 11.6 µM | 7.71 µM | 7.86 µM | 8.17 µM | 16.6 µM |  |
| C[C@@H]1CC[C@@H]2[C@]34OO[C@](C)(CC[C@@H]13)O[C@H]4O[C@]2(C)C(=O)Nc1ccc(NC(=O)[C@@]2(C)O[C@@H]3O[C@@]4(C)CC[C@H]5[C@H](C)CC[C@@H]2[C@@]35OO4)cc1 | > 50 µM | > 50 µM | > 50 µM | > 50 µM | > 50 µM |  |  |
| C[C@H]1[C@@H](O)O[C@@H]2O[C@@]3(C)CC[C@H]4[C@H](C)CC[C@@H]1[C@@]24OO3 [ARTENIMOL] | > 50 µM | 32.8 µM | 29.9 µM | > 50 µM | > 50 µM | > 50 µM |  |
| CCOP(=O)(OC[C@@]1(C)O[C@@H]2O[C@@]3(C)CC[C@H]4[C@H](C)CC[C@@H]1[C@@]24OO3)OC[C@@]1(C)O[C@@H]2O[C@@]3(C)CC[C@H]4[C@H](C)CC[C@@H]1[C@@]24OO3 |  | 14.8 µM | 15.4 µM | 9.62 µM | 5.46 µM | 33.9 µM |  |
| C[C@@H]1CC[C@H]2[C@@H](C)C(=O)O[C@@H]3O[C@@]4(C)CC[C@@H]1[C@]32OO4 [ARTEMISININ] | > 50 µM | > 50 µM | > 50 µM | > 50 µM | > 50 µM | > 50 µM |  |
| C[C@@H]1CC[C@@H]2[C@]34OO[C@](C)(CC[C@@H]13)O[C@H]4O[C@]2(C)/C=C\COP(=O)(OC/C=C/[C@@]1(C)O[C@@H]2O[C@@]3(C)CC[C@H]4[C@H](C)CC[C@@H]1[C@@]24OO3)Oc1ccccc1 | 5.79 µM | 9.1 µM | 10.7 µM | 8.14 µM | 7.22 µM | 31.6 µM |  |
| C[C@@H]1CC[C@@H]2[C@]34OO[C@](C)(CC[C@@H]13)O[C@H]4O[C@]2(C)C(=O)NCCCCNC(=O)[C@@]1(C)O[C@@H]2O[C@@]3(C)CC[C@H]4[C@H](C)CC[C@@H]1[C@@]24OO3 | > 50 µM | > 50 µM | > 50 µM | > 50 µM | 25.4 µM |  |  |
| C[C@@H]1CC[C@@H]2[C@]34OO[C@](C)(CC[C@@H]13)O[C@H]4O[C@]2(C)C(=O)OCCCCCCCCCOC(=O)[C@@]1(C)O[C@@H]2O[C@@]3(C)CC[C@H]4[C@H](C)CC[C@@H]1[C@@]24OO3 | 5.12 µM | 7.41 µM | 12.2 µM | 8.13 µM | 4.46 µM | 33.7 µM |  |
